Test results reported in the kinase profiling compilation of Christmann-Franck et al. (2016).

Columns and labels:
Assay in all cases: KINOMEscan competition binding
Settings in all cases: compound 10.0 µM
AURKB (human) = AURKB (human) (UniProt Q96GD4)
FGFR2 (human) = FGFR2 (human) (UniProt P21802)
FER (human) = FER (human) (UniProt P16591)
RIPK2 (human) = RIPK2 (human) (UniProt O43353)
FGFR4 (human) = FGFR4 (human) (UniProt P22455)
IRAK4 (human) = IRAK4 (human) (UniProt Q9NWZ3)
HIPK4 (human) = HIPK4 (human) (UniProt Q8NE63)
TRPM6 (human) = TRPM6 (human) (UniProt Q9BX84)
WEE2 (human) = WEE2 (human) (UniProt P0C1S8)
MKNK1 (human) = MKNK1 (human) (UniProt Q9BUB5)
[1] = target: JAK1 JH1 catalytic (human) (UniProt P23458)
PIK3CA (human) = PIK3CA (human) (UniProt P42336)
CDK4 CCND3 (human) = CDK4 CCND3 (human) (UniProt P11802+P30281)
AURKC (human) = AURKC (human) (UniProt Q9UQB9)
[2] = system: KIT (human), P10721 [V559D/V654A]
DDR1 (human) = DDR1 (human) (UniProt Q08345)
SIK3 (human) = SIK3 (human) (UniProt Q9Y2K2)
TEK (human) = TEK (human) (UniProt Q02763)
CSNK1E (human) = CSNK1E (human) (UniProt P49674)
PIM2 (human) = PIM2 (human) (UniProt Q9P1W9)
PTK2 (human) = PTK2 (human) (UniProt Q05397)
DAPK1 (human) = DAPK1 (human) (UniProt P53355)
MAPK11 (human) = MAPK11 (human) (UniProt Q15759)
ITK (human) = ITK (human) (UniProt Q08881)
SRPK2 (human) = SRPK2 (human) (UniProt P78362)
STK3 (human) = STK3 (human) (UniProt Q13188)
RIPK4 (human) = RIPK4 (human) (UniProt P57078)
PRKCH (human) = PRKCH (human) (UniProt P24723)
CAMKK1 (human) = CAMKK1 (human) (UniProt Q8N5S9)
TLK1 (human) = TLK1 (human) (UniProt Q9UKI8)
YSK4 (human) = YSK4 (human) (UniProt Q56UN5)
SRMS (human) = SRMS (human) (UniProt Q9H3Y6)
PRPF4B (human) = PRPF4B (human) (UniProt Q13523)
TYRO3 (human) = TYRO3 (human) (UniProt Q06418)
NEK7 (human) = NEK7 (human) (UniProt Q8TDX7)
STK38 (human) = STK38 (human) (UniProt Q15208)
CDK18 (human) = CDK18 (human) (UniProt Q07002)
CDKL1 (human) = CDKL1 (human) (UniProt Q00532)
MUSK (human) = MUSK (human) (UniProt O15146)
CDK2 (human) = CDK2 (human) (UniProt P24941)

FGFR2 (human), sequence (P21802 whole entry, looked up): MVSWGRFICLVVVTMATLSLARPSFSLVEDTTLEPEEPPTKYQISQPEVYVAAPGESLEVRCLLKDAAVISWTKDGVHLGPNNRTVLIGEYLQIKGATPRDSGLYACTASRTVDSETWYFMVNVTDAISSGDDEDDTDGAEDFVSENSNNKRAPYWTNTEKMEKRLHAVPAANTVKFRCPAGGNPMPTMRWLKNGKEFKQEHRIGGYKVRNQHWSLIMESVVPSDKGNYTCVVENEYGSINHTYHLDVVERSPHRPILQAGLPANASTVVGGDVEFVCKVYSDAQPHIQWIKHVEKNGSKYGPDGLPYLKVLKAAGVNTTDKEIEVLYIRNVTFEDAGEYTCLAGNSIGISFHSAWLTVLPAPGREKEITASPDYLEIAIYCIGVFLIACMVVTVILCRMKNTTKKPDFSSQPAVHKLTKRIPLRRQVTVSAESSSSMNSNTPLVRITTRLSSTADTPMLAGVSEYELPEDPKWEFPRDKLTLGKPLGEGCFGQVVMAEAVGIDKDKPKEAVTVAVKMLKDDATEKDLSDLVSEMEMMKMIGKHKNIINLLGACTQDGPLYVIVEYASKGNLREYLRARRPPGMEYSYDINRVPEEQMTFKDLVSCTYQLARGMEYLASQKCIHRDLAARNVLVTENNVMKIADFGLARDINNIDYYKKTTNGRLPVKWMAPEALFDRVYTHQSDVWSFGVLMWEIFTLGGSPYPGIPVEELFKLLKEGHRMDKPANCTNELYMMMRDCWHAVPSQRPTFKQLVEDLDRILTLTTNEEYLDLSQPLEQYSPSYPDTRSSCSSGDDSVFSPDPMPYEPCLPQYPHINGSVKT
TRPM6 (human), sequence (Q9BX84 whole entry, looked up): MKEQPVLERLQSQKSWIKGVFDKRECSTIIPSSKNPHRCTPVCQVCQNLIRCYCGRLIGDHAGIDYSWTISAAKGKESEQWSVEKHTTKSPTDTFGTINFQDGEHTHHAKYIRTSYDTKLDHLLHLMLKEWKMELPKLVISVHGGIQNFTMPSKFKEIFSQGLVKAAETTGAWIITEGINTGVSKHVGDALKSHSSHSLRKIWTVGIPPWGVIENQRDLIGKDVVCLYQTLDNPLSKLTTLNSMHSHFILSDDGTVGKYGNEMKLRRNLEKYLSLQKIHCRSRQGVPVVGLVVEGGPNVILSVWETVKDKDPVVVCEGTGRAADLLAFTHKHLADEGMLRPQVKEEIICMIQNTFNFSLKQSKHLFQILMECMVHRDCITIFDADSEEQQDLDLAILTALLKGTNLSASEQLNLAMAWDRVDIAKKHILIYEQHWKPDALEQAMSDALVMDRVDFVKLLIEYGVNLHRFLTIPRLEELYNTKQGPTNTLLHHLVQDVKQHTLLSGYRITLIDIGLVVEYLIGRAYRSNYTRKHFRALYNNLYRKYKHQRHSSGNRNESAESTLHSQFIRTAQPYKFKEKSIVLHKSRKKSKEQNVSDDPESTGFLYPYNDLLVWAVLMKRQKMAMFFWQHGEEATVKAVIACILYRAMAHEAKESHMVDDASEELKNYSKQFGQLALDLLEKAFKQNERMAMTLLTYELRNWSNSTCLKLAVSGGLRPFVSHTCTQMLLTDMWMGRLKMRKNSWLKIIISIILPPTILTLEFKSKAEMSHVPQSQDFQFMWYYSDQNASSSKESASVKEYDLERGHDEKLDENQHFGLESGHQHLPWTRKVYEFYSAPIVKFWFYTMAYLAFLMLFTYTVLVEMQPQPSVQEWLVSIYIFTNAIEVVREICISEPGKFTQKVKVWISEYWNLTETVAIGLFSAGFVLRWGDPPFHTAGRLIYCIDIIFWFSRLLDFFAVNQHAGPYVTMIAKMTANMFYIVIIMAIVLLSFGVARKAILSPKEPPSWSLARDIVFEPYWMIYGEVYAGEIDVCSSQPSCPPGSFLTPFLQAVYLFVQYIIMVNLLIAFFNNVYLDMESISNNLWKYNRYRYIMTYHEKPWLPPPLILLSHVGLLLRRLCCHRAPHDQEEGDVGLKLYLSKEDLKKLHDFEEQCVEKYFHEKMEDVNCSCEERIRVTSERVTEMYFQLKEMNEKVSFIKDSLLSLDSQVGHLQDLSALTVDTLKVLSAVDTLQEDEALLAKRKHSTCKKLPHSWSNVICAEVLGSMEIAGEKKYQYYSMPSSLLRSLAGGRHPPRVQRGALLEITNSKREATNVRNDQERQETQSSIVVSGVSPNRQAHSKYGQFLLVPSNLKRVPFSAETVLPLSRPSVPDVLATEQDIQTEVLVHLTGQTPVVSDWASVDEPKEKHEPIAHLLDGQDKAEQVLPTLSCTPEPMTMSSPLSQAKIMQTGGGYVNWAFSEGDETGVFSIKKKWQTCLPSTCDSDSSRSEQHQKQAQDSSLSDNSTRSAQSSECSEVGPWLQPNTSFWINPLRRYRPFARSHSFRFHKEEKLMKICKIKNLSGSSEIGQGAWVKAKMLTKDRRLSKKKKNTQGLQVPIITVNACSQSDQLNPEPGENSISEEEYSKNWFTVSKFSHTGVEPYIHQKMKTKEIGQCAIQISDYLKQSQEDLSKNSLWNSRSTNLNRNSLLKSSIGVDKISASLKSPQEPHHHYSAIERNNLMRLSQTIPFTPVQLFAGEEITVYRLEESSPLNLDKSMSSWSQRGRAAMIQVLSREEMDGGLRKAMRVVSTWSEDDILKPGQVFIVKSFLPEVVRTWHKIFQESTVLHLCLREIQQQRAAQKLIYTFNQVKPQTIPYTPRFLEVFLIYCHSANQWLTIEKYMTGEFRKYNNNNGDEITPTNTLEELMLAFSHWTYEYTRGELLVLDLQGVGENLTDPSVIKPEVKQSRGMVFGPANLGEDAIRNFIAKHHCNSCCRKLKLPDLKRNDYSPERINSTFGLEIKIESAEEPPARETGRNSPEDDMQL
PIM2 (human), sequence (Q9P1W9 whole entry, looked up): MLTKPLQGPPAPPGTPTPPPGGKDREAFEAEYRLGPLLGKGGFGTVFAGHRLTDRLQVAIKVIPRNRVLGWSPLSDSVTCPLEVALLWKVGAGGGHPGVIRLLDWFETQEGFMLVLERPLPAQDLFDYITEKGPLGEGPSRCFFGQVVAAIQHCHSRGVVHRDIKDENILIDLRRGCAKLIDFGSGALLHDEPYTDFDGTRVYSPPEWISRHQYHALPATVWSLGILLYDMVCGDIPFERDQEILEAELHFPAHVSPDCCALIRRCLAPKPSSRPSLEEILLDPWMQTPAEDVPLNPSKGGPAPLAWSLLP
PIK3CA (human), sequence (P42336 whole entry, looked up): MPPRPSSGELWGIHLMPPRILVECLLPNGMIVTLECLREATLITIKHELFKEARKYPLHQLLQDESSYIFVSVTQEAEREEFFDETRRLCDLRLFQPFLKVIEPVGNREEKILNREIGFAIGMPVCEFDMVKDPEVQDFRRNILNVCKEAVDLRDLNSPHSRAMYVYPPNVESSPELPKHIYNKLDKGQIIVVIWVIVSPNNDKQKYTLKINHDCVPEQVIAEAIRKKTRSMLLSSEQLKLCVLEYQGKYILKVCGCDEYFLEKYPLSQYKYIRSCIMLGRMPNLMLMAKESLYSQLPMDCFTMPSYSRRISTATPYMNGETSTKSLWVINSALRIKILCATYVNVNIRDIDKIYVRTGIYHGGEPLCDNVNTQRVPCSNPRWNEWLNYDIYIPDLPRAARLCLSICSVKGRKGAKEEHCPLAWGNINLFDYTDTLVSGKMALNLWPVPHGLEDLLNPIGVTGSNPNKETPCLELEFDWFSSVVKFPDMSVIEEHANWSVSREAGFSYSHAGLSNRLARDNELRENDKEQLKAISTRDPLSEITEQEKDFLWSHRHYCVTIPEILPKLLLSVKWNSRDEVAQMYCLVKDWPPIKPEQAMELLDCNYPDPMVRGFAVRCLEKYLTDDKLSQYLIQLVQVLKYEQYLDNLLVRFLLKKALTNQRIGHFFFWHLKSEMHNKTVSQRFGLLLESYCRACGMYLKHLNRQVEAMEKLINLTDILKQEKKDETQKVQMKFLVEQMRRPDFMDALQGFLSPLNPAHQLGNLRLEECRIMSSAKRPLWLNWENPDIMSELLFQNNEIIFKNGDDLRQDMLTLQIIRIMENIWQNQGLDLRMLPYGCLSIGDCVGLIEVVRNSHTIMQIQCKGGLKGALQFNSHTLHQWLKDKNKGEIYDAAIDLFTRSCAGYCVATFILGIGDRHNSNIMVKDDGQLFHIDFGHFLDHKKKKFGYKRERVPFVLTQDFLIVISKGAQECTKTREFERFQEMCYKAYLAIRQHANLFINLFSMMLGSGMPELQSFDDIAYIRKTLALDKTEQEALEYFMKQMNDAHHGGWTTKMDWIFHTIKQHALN
FGFR4 (human), sequence (P22455 whole entry, looked up): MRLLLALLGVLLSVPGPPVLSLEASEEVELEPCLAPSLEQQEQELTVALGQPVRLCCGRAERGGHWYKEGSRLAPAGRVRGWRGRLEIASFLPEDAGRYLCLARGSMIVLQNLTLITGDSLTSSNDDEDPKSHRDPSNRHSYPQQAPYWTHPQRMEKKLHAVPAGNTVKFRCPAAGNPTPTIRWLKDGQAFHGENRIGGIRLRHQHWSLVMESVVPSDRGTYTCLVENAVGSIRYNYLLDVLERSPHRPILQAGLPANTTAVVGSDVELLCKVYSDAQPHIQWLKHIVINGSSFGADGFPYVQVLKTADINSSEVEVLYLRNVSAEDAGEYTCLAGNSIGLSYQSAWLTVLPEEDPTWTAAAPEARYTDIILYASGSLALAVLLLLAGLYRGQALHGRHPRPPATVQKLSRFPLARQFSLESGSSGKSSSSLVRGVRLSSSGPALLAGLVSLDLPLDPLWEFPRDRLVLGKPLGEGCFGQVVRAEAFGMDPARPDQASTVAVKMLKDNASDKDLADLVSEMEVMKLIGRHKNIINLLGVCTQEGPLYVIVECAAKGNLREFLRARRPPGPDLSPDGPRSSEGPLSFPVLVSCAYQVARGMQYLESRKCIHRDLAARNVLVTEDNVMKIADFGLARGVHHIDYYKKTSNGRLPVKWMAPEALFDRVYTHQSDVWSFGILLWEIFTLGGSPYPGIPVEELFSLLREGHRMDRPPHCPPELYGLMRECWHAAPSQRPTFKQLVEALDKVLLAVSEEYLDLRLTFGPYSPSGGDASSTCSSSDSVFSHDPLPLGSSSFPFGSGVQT

## O=C1NC(=O)/C(=C/c2ccc3nccc(-c4ccncc4)c3c2)S1
AURKB (human)
  kinase still bound, per cent of control: 39%
FGFR2 (human)
  kinase still bound, per cent of control: 100%
FER (human)
  kinase still bound, per cent of control: 50%
RIPK2 (human)
  kinase still bound, per cent of control: 30%
FGFR4 (human)
  kinase still bound, per cent of control: 59%
IRAK4 (human)
  kinase still bound, per cent of control: 47%
HIPK4 (human)
  kinase still bound, per cent of control: 3.8%
TRPM6 (human)
  kinase still bound, per cent of control: 97%
WEE2 (human)
  kinase still bound, per cent of control: 95%
MKNK1 (human)
  kinase still bound, per cent of control: 84%
[1]
  kinase still bound, per cent of control: 95%
PIK3CA (human)
  kinase still bound, per cent of control: 0.05%
CDK4 CCND3 (human)
  kinase still bound, per cent of control: 100%
AURKC (human)
  kinase still bound, per cent of control: 56%
[2]
  kinase still bound, per cent of control: 100%
DDR1 (human)
  kinase still bound, per cent of control: 62%
SIK3 (human)
  kinase still bound, per cent of control: 93%
TEK (human)
  kinase still bound, per cent of control: 98%
CSNK1E (human)
  kinase still bound, per cent of control: 2.6%
PIM2 (human)
  kinase still bound, per cent of control: 1%
PTK2 (human)
  kinase still bound, per cent of control: 100%
DAPK1 (human)
  kinase still bound, per cent of control: 6.4%
MAPK11 (human)
  kinase still bound, per cent of control: 86%
ITK (human)
  kinase still bound, per cent of control: 81%
SRPK2 (human)
  kinase still bound, per cent of control: 86%
STK3 (human)
  kinase still bound, per cent of control: 54%
RIPK4 (human)
  kinase still bound, per cent of control: 56%
PRKCH (human)
  kinase still bound, per cent of control: 88%
CAMKK1 (human)
  kinase still bound, per cent of control: 12%
TLK1 (human)
  kinase still bound, per cent of control: 81%
YSK4 (human)
  kinase still bound, per cent of control: 0.05%
SRMS (human)
  kinase still bound, per cent of control: 67%
PRPF4B (human)
  kinase still bound, per cent of control: 88%
TYRO3 (human)
  kinase still bound, per cent of control: 100%
NEK7 (human)
  kinase still bound, per cent of control: 88%
STK38 (human)
  kinase still bound, per cent of control: 61%
CDK18 (human)
  kinase still bound, per cent of control: 56%
CDKL1 (human)
  kinase still bound, per cent of control: 61%
MUSK (human)
  kinase still bound, per cent of control: 92%
CDK2 (human)
  kinase still bound, per cent of control: 76%
